According to the SangsterLogP compilation:

Assay: method code SF, from DOI: 10.1021/jm201475u, PMID: 22339047
Conditions: for logD: pH 7.4

Compound	logP	logD
Cc1cn(C)c(F)c(O)c1=O	-0.65	
Cc1cc(=O)c(O)c(F)[nH]1		0.25
Cn1cc(O)c(=O)c(F)c1	-1.32	
CCCn1ccc(=O)c(O)c1F	-0.08	
Cc1c(O)c(=O)c(F)cn1C	-0.8	
CC(C)n1cc(O)c(=O)c(F)c1	-0.92	
CCCCn1ccc(=O)c(O)c1F	0.38	
Cc1[nH]c(F)c(O)c(=O)c1C		1.07
Cc1c[nH]c(F)c(O)c1=O		0.5
Cc1[nH]cc(F)c(=O)c1O	0	
CCCn1cc(O)c(=O)c(F)c1	-0.46	
CCn1cc(O)c(=O)c(F)c1	-0.89	
O=c1c(O)c(F)[nH]c(F)c1F	1.7	

Further lines, results first:

logP	logD	Compound
0.14		O=c1cc[nH]c(C(O)C(F)(F)F)c1O (configuration not stated)
-0.97		Cn1ccc(=O)c(O)c1F
-0.41		CC(C)n1ccc(=O)c(O)c1F
	0.23	CCc1c(O)c(=O)ccn1CC
1.35		O=c1cc(F)[nH]c(F)c1O
-0.58		CCn1ccc(=O)c(O)c1F
0.87		O=c1cc[nH]c(C(F)(F)F)c1O
-0.45		Cn1ccc(=O)c(O)c1C(F)(F)F
	-0.21	O=c1cc[nH]c(F)c1O
